Key:
HLA B*5101 = HLA B*5101 (Homo sapiens, UniProt P01889, A329T/A93T/A95T/C349S/D138N/D201E/D98Y/E187L/E204Q/E69T/G107R/I218V/K202T/L105A/L119W/N104I/Q94N/R106L/R155S/R180L/S101N/S121T/S35A/S48A/V306I/V36M/Y195H/Y91F); format: binding
HLA B*5401 = HLA B*5401 (Homo sapiens, UniProt P01889, A329T/C349S/D138N/D201E/E176V/E187T/E204Q/E69G/I76V/K202T/L119W/R155S/R180L/S121T/S35A/S48A/V127L/V306I/V36M/Y140L); format: binding
HLA B*5802 = HLA B*5802 (Homo sapiens, UniProt P01889, A329T/C349S/D201E/D98Y/E176V/E187L/E204Q/E69T/G107R/I218V/I90N/K202T/L105A/N104I/N87E/Q89R/Q94S/R106L/R155S/R180L/R86G/S101N/S121W/S35A/S48A/V127L/V306I/V36M/Y140S/Y91M); format: binding
HLA A*3001 = HLA A*3001 (Homo sapiens, UniProt P04439, D140H/D185E/E176W/F33S/G80R/H175R/K168Q/R138E/R41S); assay: biochemical; format: binding
HLA B*2705 = HLA B*2705 (Homo sapiens, UniProt P01889, D138H/D201E/E176V/E204Q/G107R/H137Y/K202T/N104T/N87E/Q56L/Q94K/R106L/R155S/R180L/S101D/S121N/S48T/Y140D/Y33H/Y91C); format: binding; settings: positional scanning combinatorial 9-mer library; normalized to 1.0 for the best residue at each position
HLA B*3501 = HLA B*3501 (Homo sapiens, UniProt P01889, A329T/A93T/A95T/C349S/D201E/D98Y/E176V/E187L/E204Q/E69T/I218V/K202T/L119I/Q94N/R155S/R180L/S121R/S35A/S48A/T118I/V127L/V306I/V36M/Y140S/Y91F); format: binding
H-2 K^k = H-2 K^k (Mus musculus, UniProt P04223); format: binding
H-2 D^d = H-2 D^d (Mus musculus, UniProt P01900); format: binding
HLA A*6802 = HLA A*6802 (Homo sapiens, UniProt P04439, A269V/D140Y/D185E/E176V/E277Q/E87N/F33Y/G231S/I121R/I166T/I218V/L180W/L300P/L318F/N151K/P208A/P217A/Q86R/R138H/R169H/S129P/T345S/V36M); format: binding
HLA B*0801 = HLA B*0801 (Homo sapiens, UniProt P01889, A93T/A95T/D138N/E176V/E187T/K202T/Q94N/R180D/S35A/V36M/Y33D/Y91F); assay: biochemical; format: binding
HLA A*0201 = HLA A*0201 (Homo sapiens, UniProt P04439, D140Y/D185E/D98H/E176V/E277Q/G131W/G231S/I119V/I121R/I166T/I218V/L300P/L318F/N151K/N90K/P208A/P217A/Q86G/Q94H/R138H/R169H/T345S); settings: positional scanning combinatorial 9-mer library; normalized to 1.0 for the best residue at each position
HLA B*1501 = HLA B*1501 (Homo sapiens, UniProt P01889, A329T/A93T/A95T/C349S/D201E/D98Y/E187L/E204Q/E69M/E70A/K202T/N87E/Q94N/R155S/R180W/S121R/S35A/S48A/V306I/V36M/Y140S/Y91S); assay: biochemical; format: binding
HLA A*3201 = HLA A*3201 (Homo sapiens, UniProt P04439, A270S/D101S/D185E/E176V/E277Q/F133L/G103R/G107R/G231S/H175R/I121M/I218V/I322F/K168Q/L105A/L300P/L318F/M331R/P208A/P217A/Q94H/R106L/R138Q/S129P/T104I/T323A/T345S/V100E/V321M/V358M); assay: biochemical; format: binding
HLA B*5301 = HLA B*5301 (Homo sapiens, UniProt P01889, A329T/A93T/A95T/C349S/D201E/D98Y/E176V/E187L/E204Q/E69T/G107R/I218V/K202T/L105A/L119I/N104I/Q94N/R106L/R155S/R180L/S101N/S121R/S35A/S48A/T118I/V127L/V306I/V36M/Y140S/Y91F); format: binding
H-2 D^b = H-2 D^b (Mus musculus, UniProt P01899); format: binding
HLA B*1503 = HLA B*1503 (Homo sapiens, UniProt P01889, A329T/A93T/A95T/C349S/D201E/D98Y/E187L/E204Q/K202T/N87E/Q94N/R155S/R180L/S121R/S35A/V306I/V36M/Y140S/Y91S); assay: biochemical; format: binding
HLA B*0702 = HLA B*0702 (Homo sapiens, UniProt P01889); format: binding; settings: positional scanning combinatorial 9-mer library; normalized to 1.0 for the best residue at each position
HLA B*5801 = HLA B*5801 (Homo sapiens, UniProt P01889, A329T/C349S/D201E/D98Y/E176V/E187L/E204Q/E69T/G107R/I218V/I90N/K202T/L105A/L119I/N104I/N87E/Q89R/Q94S/R106L/R155S/R180L/R86G/S101N/S121R/S35A/S48A/T118I/V127L/V306I/V36M/Y140S/Y91M); format: binding

Chain of H-2 D^d (P01900 whole entry, looked up): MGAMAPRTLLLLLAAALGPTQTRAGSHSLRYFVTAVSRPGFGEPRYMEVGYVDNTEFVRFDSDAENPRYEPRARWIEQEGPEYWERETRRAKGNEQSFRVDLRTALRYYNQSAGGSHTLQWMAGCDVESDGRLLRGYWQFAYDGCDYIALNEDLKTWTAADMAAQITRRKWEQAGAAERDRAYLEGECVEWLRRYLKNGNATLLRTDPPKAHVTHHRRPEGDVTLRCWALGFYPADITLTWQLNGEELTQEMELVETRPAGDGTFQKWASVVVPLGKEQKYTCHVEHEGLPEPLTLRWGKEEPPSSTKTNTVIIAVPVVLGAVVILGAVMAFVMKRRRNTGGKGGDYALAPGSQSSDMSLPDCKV
Chain of H-2 D^b (P01887 21-119): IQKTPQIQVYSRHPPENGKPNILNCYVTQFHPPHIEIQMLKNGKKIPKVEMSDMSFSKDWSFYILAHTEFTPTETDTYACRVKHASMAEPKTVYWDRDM
Chain of H-2 D^b (P01899 25-362): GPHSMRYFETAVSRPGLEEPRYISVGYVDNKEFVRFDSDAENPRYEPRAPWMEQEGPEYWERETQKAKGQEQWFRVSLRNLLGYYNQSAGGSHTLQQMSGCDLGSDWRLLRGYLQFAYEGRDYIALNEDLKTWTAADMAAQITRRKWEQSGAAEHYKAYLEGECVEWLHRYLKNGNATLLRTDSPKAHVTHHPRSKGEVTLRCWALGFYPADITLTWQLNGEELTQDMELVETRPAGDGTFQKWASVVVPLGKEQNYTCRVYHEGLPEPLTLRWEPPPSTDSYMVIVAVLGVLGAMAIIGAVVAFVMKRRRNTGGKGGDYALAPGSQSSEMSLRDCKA
Chain of H-2 K^k (P01887 21-119): as the sequence (P01887 21-119) above
Chain of H-2 K^k (P04223 22-369): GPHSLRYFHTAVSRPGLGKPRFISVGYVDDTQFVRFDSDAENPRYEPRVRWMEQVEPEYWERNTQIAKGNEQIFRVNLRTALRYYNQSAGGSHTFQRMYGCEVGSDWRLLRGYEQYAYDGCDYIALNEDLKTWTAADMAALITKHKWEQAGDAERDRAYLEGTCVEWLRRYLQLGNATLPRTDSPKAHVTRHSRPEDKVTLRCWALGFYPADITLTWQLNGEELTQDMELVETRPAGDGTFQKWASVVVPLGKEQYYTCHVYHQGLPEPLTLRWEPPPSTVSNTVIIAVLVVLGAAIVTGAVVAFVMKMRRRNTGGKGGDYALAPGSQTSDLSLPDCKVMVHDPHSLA

Row | Sequence | Normalized average relative binding affinity (ARB), HLA B*5101 (HLA B*5101) | Normalized average relative binding affinity (ARB), HLA B*5401 (HLA B*5401) | Normalized average relative binding affinity (ARB), HLA B*5802 (HLA B*5802) | Normalized average relative binding affinity (ARB), HLA A*3001 (HLA A*3001) | Normalized average relative binding affinity (ARB), HLA B*2705 (HLA B*2705) | Normalized average relative binding affinity (ARB), HLA B*3501 (HLA B*3501) | Normalized average relative binding affinity (ARB), H-2 Kk (H-2 K^k) | Normalized average relative binding affinity (ARB), H-2 Dd (H-2 D^d) | Normalized average relative binding affinity (ARB), HLA A*6802 (HLA A*6802) | Normalized average relative binding affinity (ARB), HLA B*0801 (HLA B*0801) | Normalized average relative binding affinity (ARB), HLA A*0201 (HLA A*0201) | Normalized average relative binding affinity (ARB), HLA B*1501 (HLA B*1501) | Normalized average relative binding affinity (ARB), HLA A*3201 (HLA A*3201) | Normalized average relative binding affinity (ARB), HLA B*5301 (HLA B*5301) | Normalized average relative binding affinity (ARB), H-2 Db (H-2 D^b) | Normalized average relative binding affinity (ARB), HLA B*1503 (HLA B*1503) | Normalized average relative binding affinity (ARB), HLA B*0702 (HLA B*0702) | Normalized average relative binding affinity (ARB), HLA B*5801 (HLA B*5801)
1 | XXRXXXXXX [3064.0055] | 0.33 | 0.062 | 0.38 | 1.0 | 0.16 | 0.074 | 0.19 | 0.0031 | 0.018 | 1.0 | 0.019 | 0.69 | 0.19 | 0.029 | 0.023 | 0.25 | 0.63 | 0.058
2 | XXSXXXXXX [3064.0056] | 0.16 | 0.014 | 0.066 | 0.040 | 0.27 | 0.11 | 0.43 | 0.0061 | 0.50 | 0.057 | 0.17 | 0.41 | 0.29 | 0.15 | 0.084 | 0.41 | 0.093 | 0.33
3 | XXTXXXXXX [3064.0057] | 0.14 | 0.012 | 0.16 | 0.0040 | 0.26 | 0.14 | 0.11 | 0.0048 | 0.14 | 0.054 | 0.14 | 0.12 | 0.16 | 0.045 | 0.057 | 0.23 | 0.035 | 0.39
4 | XXVXXXXXX [3064.0058] | 0.25 | 0.034 | 0.56 | 0.0059 | 0.19 | 0.19 | 0.26 | 0.0094 | 0.64 | 0.024 | 0.25 | 0.14 | 0.31 | 0.11 | 0.17 | 1.0 | 0.040 | 1.0
5 | XXWXXXXXX [3064.0059] | 0.47 | 1.0 | 0.95 | 0.0080 | 0.68 | 0.61 | 0.48 | 0.0028 | 0.70 | 0.19 | 0.58 | 0.16 | 0.95 | 0.076 | 0.18 | 0.35 | 0.14 | 0.29
6 | XXXAXXXXX [3064.0061] | 0.39 | 0.41 | 0.51 | 0.48 | 0.28 | 0.42 | 0.63 | 0.52 | 0.24 | 0.40 | 0.90 | 0.40 | 0.38 | 0.36 | 0.69 | 0.41 | 0.23 | 0.46

From paper PMC2248166, “Quantitative peptide binding motifs for 19 human and mouse MHC class I molecules derived using positional scanning combinatorial peptide libraries” (Immunome Research, 2008)
